Results reported in patent US5705499A, “8-arylalkyl- and 8-arylheteroalkyl-5,11-dihydro-6H-dipyrido[3,2-B:2',3'-e][1]diazepines and their use in the treatment of HIV-1 infection” (Boehringer Ingelheim Pharmaceuticals, Inc., priority 1996, dated 1998).
Where two headings read alike, the source gives them in different places.

Experiments:
[1] = system: HTLV-IIIB strain of HIV-1 (in C8166-45 cells); assay: Syncytia (human T-cell culture) Assay; format: cell-based
Protocol: Formation of syncytia is a feature of in vitro cultures of CD4+ T-cells infected with HIV-1. In this assay (1), T-cells are treated with a putative replication inhibiting compound and then infected with HIV-1. After incubation, the culture is checked for the formation of syncytia. The absence or reduction in the number of syncytia is used as a measure of the test compound's ability to inhibit HIV replication.
The target cells, designated C8166-45, are a fusion of umbilical blood lymphocytes and T-cells from leukemia-lymphoma patients and are established at an initial density of 5×10^4 per 90 μl in RPMI 1640 (+10% fetal bovine serum) culture medium in 96 well flat bottom plates. A selected amount of test compound, dissolved in DMSO, is included. 50 TCID50 's (the dose that results in induced effect in 50% of test cultures) of the HTLV-IIIB strain of HIV-1 (3) are inoculated into each culture. Control cultures receive compound or virus only.
The cultures are incubated for 72 hours (4), at 37° C. with 5% carbon dioxide, and then visually examined for the frequency and distribution of virus-induced giant cell syncytia. The percent inhibition by the test compound is determined by comparison with control values.

C8166-45 cell line = assay: MTT Assay (cytotoxicity); format: cell-based, human; conditions: C8166-45 cells, five days
[2] = Human immunodeficiency virus 1, T-cell, C8166-45 cells, HTLV-IIIB strain, 72 hours, read-out: Syncytia Assay IC50

Row | SMILES | IC50 [1, 2] | MTT Assay CC30 (C8166-45 cell line) | IC50 ([1]; Human immunodeficiency virus 1, IIIB, T-cell, 72 h, read-out: Syncytia Assay IC50 (μM))
1 | CCN1c2ncc(CCc3ccccc3)cc2C(=O)N(C)c2cccnc21 [Example 42, 5,11-Dihydro-11-ethyl-5methyl-8-(2-phenylethyl)-6H-dipyrido[3,2-b:2',3'-e][1,4]diazepin-6-one] | 0.03 µM |  | 
2 | CCN1c2ncc(CCc3ccccc3)cc2C(=O)N(C)c2ccc(Cl)nc21 [Example 45, 2Chloro-5,11-dihydro-11-ethyl-5-methyl-8-(2-phenylethyl)-6H-dipyrido[3,2-b:2',3'-e][1,4]diazepin-6-one] | 0.01 µM | > 60 µM | 
3 | CCN1c2ncc(CCOc3cc[n+]([O-])cc3)cc2C(=O)N(C)c2ccc(Cl)nc21 [Example 96, 2-chloro-5,11-dihydro-11-ethyl-5-methyl-8-[2-(N-oxo-pyrid-4-yloxy)ethyl]-6H-dipyrido[3,2-b:2',3'-e[]1,4]diazepin-6-one] | 0.03 µM | > 256 µM | 
4 | CCN1c2ncc(COc3cccc(N)c3)cc2C(=O)N(C)c2ccc(Cl)nc21 [Example 99, 8-(3-aminophenyloxy)methyl-2-chloro-5,11-dihydro-11-ethyl-5-methyl-6H-dipyrido[3,2-b:2',3'-e][1,4]diazepin-6-one] |  |  | 0.02 µM
5 | CCN1c2ncc(COc3ccccc3)cc2C(=O)N(C)c2ccc(Cl)nc21 [Example 100, 2-chloro-5,11-dihydro-11-ethyl-5-methyl-8-(phenyloxy)methyl-6H-dipyrido[3,2-b:2',3'-e][1,4]diazepin-6-one] | 0.05 µM | > 60 µM | 
6 | CCN1c2ncc(COc3ccc(O)cc3)cc2C(=O)N(C)c2ccc(Cl)nc21 [Example 105, 2-chloro-5,11-dihydro-11-ethyl-8-(4-hydroxyphenyloxy)methyl-5-methyl-6H-dipyrido[3,2-b:2',3'-e][1,4]diazepin-6-one] |  | 40 µM | 
7 | CCN1c2ncc(COc3ccccc3O)cc2C(=O)N(C)c2ccc(Cl)nc21 [Example 106, 2-chloro-5,11-dihydro-11-ethyl-8-(2-hydroxyphenyloxy)methyl-5-methyl-6H-dipyrido[3,2-b:2',3'-e][1,4]diazepin-6-one] |  | > 60 µM | 
8 | CCN1c2ncc(COc3cccnc3)cc2C(=O)N(C)c2ccc(Cl)nc21 [Example 107, 2-chloro-5,11-dihydro-11-ethyl-5-methyl-8-(3-pyridyloxy)methyl-6H-dipyrido[3,2-b:2',3'-e][1,4]diazepin-6-one] |  | > 256 µM | 
9 | CCN1c2ncc(COc3cccc(OC)c3)cc2C(=O)N(C)c2ccc(Cl)nc21 [Example 108, 2-chloro-5,11-dihydro-11-ethyl-8-(3-methoxyphenyloxy)methyl-5-methyl-6H-dipyrido[3,2-b:2',3'-e][1,4]diazepin-6-one] |  | > 120 µM | 
10 | CCN1c2ncc(COc3ccc(C(=O)OC)cc3)cc2C(=O)N(C)c2ccc(Cl)nc21 [Example 109, 2-chloro-5,11-dihydro-11-ethyl-8-(4-(methoxycarbonyl)phenyloxy)methyl-5-methyl-6H-dipyrido[3,2-b :2',3'-e][1,4]diazepin-6-one] |  | > 60 µM | 
11 | CCN1c2ncc(COc3ccccc3C(=O)OC)cc2C(=O)N(C)c2ccc(Cl)nc21 [Example 110, 2-chloro-5,11-dihydro-11-ethyl-8-(2-(methyoxycarbonyl)phenyloxy)methyl-5-methyl-6H-dipyrido[3,2-b:2',3'-e][1,4]diazepin-6-one] |  | > 250 µM | 
12 | CCN1c2ncc(COc3cccc(C(=O)OC)c3)cc2C(=O)N(C)c2ccc(Cl)nc21 [Example 111] |  | > 60 µM | 
13 | CCN1c2ncc(COc3cccc(C(=O)O)c3)cc2C(=O)N(C)c2ccc(Cl)nc21 [Example 112, 2-chloro-5,11-dihydro-11-ethyl-8-(3-(carboxy)phenyloxy)methyl-5-methyl-6H-dipyrido[3,2-b:2',3'-e][1,4]diazepin-6-one] |  | 250 µM | 
14 | CCN1c2ncc(COc3cccc(C(N)=O)c3)cc2C(=O)N(C)c2ccc(Cl)nc21 [Example 113, 8-(3-(aminocarbonyl)phenyloxy)methyl-2-chloro-5,11-dihydro-11-ethyl-5-methyl-6H-dipyrido[3,2-b:2',3'-e][1,4]diazepin-6-one] |  | 130 µM | 
15 | CCN1c2ncc(COc3cccc4[nH]ccc34)cc2C(=O)N(C)c2ccc(Cl)nc21 [Example 114, 2-chloro-5,11-dihydro-11-ethyl-8-(4-indolyloxy)methyl-5-methyl-6H-dipyrido[3,2-b:2',3'-e][1,4]diazepin-6-one] |  | 30 µM | 
16 | CCN1c2ncc(CN(C)c3ccccc3)cc2C(=O)N(C)c2ccc(Cl)nc21 [Example 116, 2-chloro-5,11-dihydro-11-ethyl-5-methyl-8-(N-methylphenylamino)methyl-6H-dipyrido[3,2-b:2',3'-e][1,4]diazepin-6-one] |  | > 60 µM | 
17 | CCN1c2ncc(CSc3ccccc3)cc2C(=O)N(C)c2ccc(Cl)nc21 [Example 117, 2-chloro-5,11-dihydro-11-ethyl-5-methyl-8-(phenylthio)methyl-6H-dipyrido[3,2-b:2',3'-e][1,4]diazepin-6-one] | 0.005 µM | 60 µM | 
18 | CCN1c2ncc(CS(=O)(=O)c3ccccc3)cc2C(=O)N(C)c2ccc(Cl)nc21 [Example 118, 2-chloro-5,11-dihydro-11-ethyl-5-methyl-8-(phenylsulfonyl)methyl-6H-dipyrido[3,2-b:2',3'e][1,4]diazepin-6-one] |  | 45 µM | 
19 | CCN1c2ncc(CSc3ncccn3)cc2C(=O)N(C)c2ccc(Cl)nc21 [Example 121, 2-chloro-5,11-dihydro-11-ethyl-5-methyl-8-(pyrimidinyl-2-thio)methyl-6H-dipyrido[3,2-b:2',3'-e][1,4]diazepin-6-one] |  | 50 µM | 
20 | CCN1c2ncc(CSc3[nH]cnc4nncc3-4)cc2C(=O)N(C)c2ccc(Cl)nc21 [Example 122, 2-chloro-5,11-dihydro-11-ethyl-5-methyl-8-(1H-pyrazolo[3,4-d]pyrimidine-4-ylthio)methyl-6H-dipyrido[3,2-b:2',3'-e][1,4]diazepin-6-one] |  | 25 µM | 
21 | CCN1c2ncc(COc3ccncc3)cc2C(=O)N(C)c2ccc(Cl)nc21 [Example 124, 2-Chloro-5,11-dihydro-11-ethyl-5-methyl-8-(pyrid-4-yloxy)methyl-6H-dipyrido[3,2-b:2',3'-e][1,4]diazepin-6-one] | 0.006 µM | > 120 µM | 
22 | CCN1c2ncc(COc3ccncc3)cc2C(=O)N(C)c2ccc(F)nc21 [Example 125, 5,11-dihydro-11-ethyl-2-fluoro-5-methyl-8-(pyrid-4-yloxy)methyl-6H-dipyrido[3,2-b:2',3'-e][1,4]diazepin-6-one] |  | 160 µM | 
23 | CCN1c2ncc(COc3ccnc(C(F)(F)F)c3)cc2C(=O)N(C)c2ccc(Cl)nc21 [Example 126, 2-chloro-5,11-dihydro-11-ethyl-5-methyl-8-(2-trifluoromethylpyrid-4-yloxy)methyl-6H-dipyrido[3,2-b;2',3'-e][1,4]diazepin-6-one] |  | 64 µM | 
24 | CCN1c2ncc(CCOc3ccncc3)cc2C(=O)N(C)c2ccc(Cl)nc21 [Example 127, 2-chloro-5,11-dihydro-11-ethyl-5-methyl-8-[2-(pyrid-4-yloxy)ethyl]-6H-dipyrido[3,2-b:2',3'-e][1,4]diazepin-6-one] | 0.003 µM | 55 µM | 
25 | CCN1c2ncc(CCOc3ccncc3)cc2C(=O)N(C)c2cccnc21 [Example 128, 5,11-dihydro-11-ethyl-5-methyl-8-(pyrid-4-yloxy)ethyl-6H-dipyrido[3,2-b:2',3'-e][1,4]diazepin-6-one] |  | > 256 µM | 
